# Measurements reported in US20060019971A1, “Treatment of cardiovascular disease with inhibitors of p38 kinase” (priority 2003, published 2006).
# “Also recorded” adds a separate entry of the source.
# Columns and labels:
# Type in all cases: cell-based, human
# [1] = system: ET-1 mRNA in HPBMCs; experiment: ET-1 gene expression in HPBMCs, real-time PCR; conditions: 6 hours
# Experimental: 5×10^6 HPBMCs were plated in 6-well. After 1 hour medium was removed and cells were treated with vehicle or 1 μM P38 INHIBITOR in RPMI 1640 medium. After 1 hour cells were stimulated with 10% FCS only or 10 μg/ml CRP plus 10% FCS. After 6 hours RNA was extracted from the cells and ET-1 gene expression level was determined by real-time PCR as described in the Experimental section.
# Cryopreserved human peripheral blood monocytes (HPBMCs, from Biowitker, Walkersvill, Md.) were thawed and washed twice in RPMI 1640. Cells were plated in tissue culture plates and incubated in 5% CO2 at 37 C. After 1 hr media were removed and cells were treated with various treatments. After 2 to 20 hours conditioned media and/or cell lysates were collected for the analyses of secreted cytokines, protein or mRNA expression. 10 μg/ml of purified human CRP (Calbiochem, San Diego, Calif.) was used in most of the treatments. In some experiments fetal calf serum (FCS from ATCC) was added to a final concentration of 10% together with CRP. In the examples provided herein, including those assessing the effects of p38 antagonism, cells were pre-treated with SD, a p38 small molecule inhibitor (Compound 162 in Table A) for 1 hour prior to CRP treatment as described above. In a parallel series of experiments, the effect of vehicle (DMSO) was tested. For TaqMan analyses of various gene expression cells were lysed in ice-cold RLT lysis buffer (Qiagen, Valencia, Calif.) and the lysates were kept in −80° C. until the analyses. […]
# (§1) RNA was extracted from the cells using Qiagen RNA extraction kit according to the manufacturer's instruction. The expression of pro-inflammatory genes IL-1β, IL-6, IL-8, TNFα, COX-2, ET-1, TF were assessed by real-time PCR. […]
# (§2) Real-time RT-PCR was performed in a two-step manner. cDNA synthesis and real-time detection were carried out in a PTC-100™ Thermal Cycler (MJ Research Inc, Waltham, Mass.) and an ABI Prism™ 7700 Sequence Detection System (Applied Biosystems, Foster City, Calif.), respectively. […] Relative quantitation of gene expression was performed using the relative standard curve method. […]
# [2] = system: IL-6 mRNA in HPBMCs; experiment: IL-6 gene expression in HPBMCs, real-time PCR; conditions: 1 μM SD, 6 hours
# Experimental: FIG. 2(a) illustrates both the effect of CRP on IL-6 secretion from HPBMCs and its modulation by a p38 inhibitor. 8×10^5 HPBMCs were plated in 96-well. After 1 hour medium was removed and cells were incubated with or without 10 μg/ml of purified human CRP in serum-free RPMI 1640. In parallel experiments cells were treated with 10% FCS together with the CRP treatment. For the p38 antagonism, the p38 inhibitor was added to a final concentration of 1 μM in the parallel treatment. After 6 hours the conditioned medium was collected and IL-6 and IL-8 levels were determined by ELISA. FIG. 2(b) illustrates the effects of p38 inhibitor concentration on CRP induced IL-6 secretion from HPBMCs. 3×10^5 HPBMCs were plated in 96-well. After 1 hour medium was removed and cells were incubated with 10 μg/ml of purified human CRP plus 10% FCS in the presence of varying concentrations of p38 inhibitor. After 4 hours conditioned medium were collected and IL-6 level was determined by ELISA. […] After 6 hours RNA was extracted from the cells and IL-6 expression level was determined by real-time PCR as described in Experimental section. […]
# as §1
# [3] = system: IL-8 mRNA in HPBMCs; experiment: IL-8 gene expression in HPBMCs, real-time PCR; conditions: 1 μM SD
# Experimental: 8×10^5 HPBMCs were plated in 96-well. After 1 hour medium was removed and cells were incubated with or without 10 μg/ml of purified human CRP in serum-free RPMI 1640. In parallel experiments cells were treated with 10% FCS together with the CRP treatment. For the p38 antagonism, p38 inhibitor was added to a final concentration of 1 μM in the parallel treatment. After 6 hours conditioned medium were collected and IL-6 and IL-8 levels were determined by ELISA. […] 5×10^6 HPBMCs were plated in 6-well. After 1 hour medium was removed and cells were treated with vehicle or 1 μM p38 inhibitor in RPMI 1640 medium. After 1 hour cells were stimulated with 10% FCS only or 10 μg/ml CRP plus 10% FCS. After 2 hours RNA was extracted from the cells and IL-8 expression level was determined by real-time PCR as described in the Experimental section.
# Cryopreserved human peripheral blood monocytes (HPBMCs, from Biowitker, Walkersvill, Md.) were thawed and washed twice in RPMI 1640. Cells were plated in tissue culture plates and incubated in 5% CO2 at 37 C. After 1 hr media were removed and cells were treated with various treatments. […]
# as §1
# [4] = system: IL-1β mRNA in HPBMCs; experiment: IL-1β gene expression in HPBMCs, real-time PCR; conditions: 1 μM SD, 2 hrs
# Experimental: 5×10^6 HPBMCs were plated in 6-well. After 1 hour medium was removed and cells were treated with vehicle or 1μM p38 inhibitor in RPMI 1640 medium. After 1 hour cells were stimulated with 10% FCS only or 10 μg/ml CRP plus 10% FCS. After 6 hours conditioned medium was collected and IL-1b and TNFa levels were determined by ELISA. […] 5×10^6 HPBMCs were plated in 6-well. After I hour medium was removed and cells were treated with vehicle or […] p38 inhibitor in RPMI 1640 medium. After 1 hour cells were stimulated with 10% FCS only or 10 μg/ml CRP plus 10% FCS. After 2 hours RNA was extracted from the cells and TNFa (c) and IL-1b (d) expression levels were determined by real-time PCR as described in the Experimental section. […]
# as §1, §2
compound,measurement,setting,value
C[C@@H]1CN(Cc2ccc(F)cc2)[C@@H](C)CN1C(=O)c1cc2c(C(=O)C(=O)N(C)C)c[nH]c2cc1Cl [Compound 162],inhibition of CRP-invoked ET-1 mRNA expression,"[1]; 1 μM SD pre-treatment, listed as SD",almost completely blocked; also recorded: almost completely inhibited
same,inhibition of FCS induced ET-1 mRNA,[1]; 1 μM SD,completely inhibited
same,inhibition of FCS invoked IL-6 mRNA expression,[2],almost completely blocked
same,inhibition of CRP invoked IL-6 mRNA expression,[2]; CRP plus 10% FCS,almost completely blocked
same,inhibition of FCS invoked IL-8 expression,[3],almost completely inhibited
same,inhibition of CRP increased IL-8 mRNA level,[3]; at 6 hours,almost completely inhibited
same,inhibition of FCS induced expression of IL-1β gene,[4],attenuated
